From patent US20230051589A1, “COMPOUNDS AND COMPOSITIONS FOR TREATING CONDITIONS ASSOCIATED WITH NLRP ACTIVITY” (Novartis AG, priority 2018, published 2023) come the findings set out here.

The test system of one test is IL-1β production in PMA-differentiated THP-1 cells. Kind of test: IL-1β production in PMA-differentiated THP-1 cells stimulated with gramicidin (hTHP-1 assay, 2% fetal bovine serum; Procedures 1-3). As to conditions: Homo sapiens, THP-1, Table B3; hTHP-1 assay containing 2% fetal bovine serum, gramicidin stimulation, IL-1β readout; read-out: hTHP-1 IC50. The format is cell-based, human. In outline:
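IL-1β released into supernatants was read by HTRF after 2 h gramicidin (5 μM) challenge. Before challenge, compounds (3-fold dilutions, top 100 μM, 0.37% DMSO) were given 1 h on THP-1 cells differentiated with PMA (20 ng/ml, 16-18 h) and held in 2% FBS medium.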
Regarding `NS(=O)(=NC(=O)Nc1c2c(cc3c1CC3)CCC2)c1cc2c(s1)CCNC2` (stereo not drawn) [Example 715, N′-((2,4,5,6-tetrahydro-1H-cyclobuta[f]inden-3-yl)carbamoyl)-4,5,6,7-tetrahydrothieno[3,2-c]pyridine-2-sulfonimidamide], the IC50 was in the range of 40 to 200 nM.

Regarding `NS(=O)(=NC(=O)Nc1c2c(cc3c1CC3)CCC2)c1sc(CN2CCC2)cc1F` (stereo not drawn) [Example 718, 5-(Azetidin-1-ylmethyl)-3-fluoro-N′-((2,4,5,6-tetrahydro-1H-cyclobuta[f]inden-3-yl)carbamoyl)thiophene-2-sulfonimidamide], the IC50 was in the range of 200 to 1000 nM.

In the case of `CNC(c1ccc(S(N)(=O)=NC(=O)Nc2c3c(cc4c2CC4)CCC3)s1)C1CC1` (stereo not drawn) [Example 719, 5-(Cyclopropyl(methylamino)methyl)-N′-((2,4,5,6-tetrahydro-1H-cyclobuta[f]inden-3-yl)carbamoyl)thiophene-2-sulfonimidamide], the IC50 lay in the range of 8 to 40 nM.

Turning to `CNCc1csc(S(N)(=O)=NC(=O)Nc2c3c(cc4c2CC4)CCC3)c1` (stereo not drawn) [Example 722, 4-((Methylamino)methyl)-N′-((2,4,5,6-tetrahydro-1H-cyclobuta[f]inden-3-yl)carbamoyl)thiophene-2-sulfonimidamide], the IC50 lay in the range of 40 to 200 nM.

Staying with this test, now noted: Homo sapiens, THP-1, hTHP-1 assay containing 2% fetal bovine serum, Table B2, class symbols; read-out: IC50.
With `C[C@@](O)(CN)c1ncc(S(N)(=O)=NC(=O)Nc2c3c(cc4c2CCC4)CCC3)s1` (stereo partly drawn) [Example 673, 2-((R)-1-amino-2-hydroxypropan-2-yl)-N′-((1,2,3,5,6,7-hexahydro-s-indacen-4-yl)carbamoyl)thiazole-5-sulfonimidamide], the IC50 was 40 to 200 nM. Consider `C[C@]1(c2ncc(S(N)(=O)=NC(=O)Nc3c4c(cc5c3CCC5)CCC4)s2)CNC(=O)O1` (stereo partly drawn) [Example 674, N′-((1,2,3,5,6,7-hexahydro-s-indacen-4-yl)carbamoyl)-2-((R)-5-methyl-2-oxooxazolidin-5-yl)thiazole-5-sulfonimidamide], for which the IC50 was 40 to 200 nM. Turning to `CC(=O)NC[C@@](C)(O)c1ncc(S(N)(=O)=NC(=O)Nc2c3c(cc4c2CCC4)CCC3)s1` (stereo partly drawn) [Example 675, N-((2R)-2-(5-(N′-((1,2,3,5,6,7-hexahydro-s-indacen-4-yl)carbamoyl)sulfamidimidoyl)thiazol-2-yl)-2-hydroxypropyl)acetamide], the IC50 lay within 40 to 200 nM.

With `CC(C)(C)OC(=O)NC[C@@](C)(O)c1ncc(S(N)(=O)=NC(=O)Nc2c3c(cc4c2CCC4)CCC3)s1` (stereo partly drawn) [Example 676, Tert-butyl ((2R)-2-(5-(N′-((1,2,3,5,6,7-hexahydro-s-indacen-4-yl)carbamoyl)sulfamidimidoyl)thiazol-2-yl)-2-hydroxypropyl)carbamate], the IC50 fell in the range of 40 to 200 nM.

As for `C[C@@](O)(COCCO)c1ncc(S(N)(=O)=NC(=O)Nc2c3c(cc4c2CCC4)CCC3)s1` (stereo partly drawn) [Example 677, N′-((1,2,3,5,6,7-hexahydro-s-indacen-4-yl)carbamoyl)-2-((R)-2-hydroxy-1-(2-hydroxyethoxy)propan-2-yl)thiazole-5-sulfonimidamide], the IC50 lay in the range of 40 to 200 nM. Regarding `N#Cc1c2c(c(NC(=O)N=S(N)(=O)c3cnc(C(O)(CO)CO)s3)c3c1CCC3)CCC2` (stereo not drawn) [Example 678, N′-((8-cyano-1,2,3,5,6,7-hexahydro-s-indacen-4-yl)carbamoyl)-2-(1,2,3-trihydroxypropan-2-yl)thiazole-5-sulfonimidamide], the IC50 was 5000 to 30000 nM. The same measure, in the same setting: then `COCc1nc(C(C)(C)O)sc1S(N)(=O)=NC(=O)Nc1c2c(c(C#N)c3c1CCC3)CCC2` (stereo not drawn) [Example 679, N′-((8-cyano-1,2,3,5,6,7-hexahydro-s-indacen-4-yl)carbamoyl)-2-(2-hydroxypropan-2-yl)-4-(methoxymethyl)thiazole-5-sulfonimidamide], with 200 to 1000 nM; and `CC(C)(O)c1ccnc(S(N)(=O)=NC(=O)Nc2c3c(c(C#N)c4c2CCC4)CCC3)c1` (stereo not drawn) [Example 681, N′-((8-cyano-1,2,3,5,6,7-hexahydro-s-indacen-4-yl)carbamoyl)-4-(2-hydroxypropan-2-yl)pyridine-2-sulfonimidamide], with 200 to 1000 nM. On the same count and under the same terms, then `COc1ccc(Cn2nc(S(N)(=O)=NC(=O)Nc3c4c(cc5c3CCC5)CCC4)cc2C(C)(C)O)cc1` (stereo not drawn) [Example 682, N′-((1,2,3,5,6,7-hexahydro-s-indacen-4-yl)carbamoyl)-5-(2-hydroxypropan-2-yl)-1-(4-methoxybenzyl)-1H-pyrazole-3-sulfonimidamide], with 200 to 1000 nM; and `C[C@@](O)(COCCOCc1ccccc1)c1ncc(S(N)(=O)=NC(=O)Nc2c3c(cc4c2CCC4)CCC3)s1` (stereo partly drawn) [Example 683, 2-((R)-1-(2-(benzyloxy)ethoxy)-2-hydroxypropan-2-yl)-N′-((1,2,3,5,6,7-hexahydro-s-indacen-4-yl)carbamoyl)thiazole-5-sulfonimidamide], with 200 to 1000 nM; and `COCCOC[C@@](C)(O)c1ncc(S(N)(=O)=NC(=O)Nc2c3c(cc4c2CCC4)CCC3)s1` (stereo partly drawn) [Example 684, N′-((1,2,3,5,6,7-hexahydro-s-indacen-4-yl)carbamoyl)-2-((R)-2-hydroxy-1-(2-methoxyethoxy)propan-2-yl)thiazole-5-sulfonimidamide], with 40 to 200 nM. Still for that read-out and setting: the same measure for `C=CCNCc1ccc([S@](N)(=O)=NC(=O)Nc2c3c(cc4c2CCC4)CCC3)cc1` [Example 699, (R)-4-((allylamino)methyl)-N′-((1,2,3,5,6,7-hexahydro-s-indacen-4-yl)carbamoyl)-benzenesulfonimidamide]: 1000 to 5000 nM; for `CCNCc1ccc([S@](N)(=O)=NC(=O)Nc2c3c(cc4c2CCC4)CCC3)cc1` [Example 700, (R)-4-((ethylamino)methyl)-N′-((1,2,3,5,6,7-hexahydro-s-indacen-4-yl)carbamoyl)-benzenesulfonimidamide]: 1000 to 5000 nM.

With `COCCNCc1ccc([S@](N)(=O)=NC(=O)Nc2c3c(cc4c2CCC4)CCC3)cc1` [Example 701, (R)-N′-((1,2,3,5,6,7-hexahydro-s-indacen-4-yl)carbamoyl)-4-(((2-methoxyethyl)amino)-methyl)benzenesulfonimidamide], the IC50 lay in the range of 1000 to 5000 nM. `CCC(C)NCc1ccc([S@](N)(=O)=NC(=O)Nc2c3c(cc4c2CCC4)CCC3)cc1` (stereo partly drawn) [Example 702, (R)-4-((sec-butylamino)methyl)-N′-((1,2,3,5,6,7-hexahydro-s-indacen-4-yl)carbamoyl)-benzenesulfonimidamide]: the IC50 lay in the range of 1000 to 5000 nM. On the same count and under the same terms, then `N[S@@](=O)(=NC(=O)Nc1c2c(cc3c1CCC3)CCC2)c1ccc(CNC2CCOCC2)cc1` [Example 703, (R)-N′-((1,2,3,5,6,7-hexahydro-s-indacen-4-yl)carbamoyl)-4-(((tetrahydro-2H-pyran-4-yl)-amino)methyl)benzenesulfonimidamide], with 1000 to 5000 nM; and `N[S@@](=O)(=NC(=O)Nc1c2c(cc3c1CCC3)CCC2)c1ccc(CNC2CCCCCC2)cc1` [Example 704, (R)-4-((cycloheptylamino)methyl)-N′-((1,2,3,5,6,7-hexahydro-s-indacen-4-yl)-carbamoyl)-benzenesulfonimidamide], with 1000 to 5000 nM; and `N[S@@](=O)(=NC(=O)Nc1c2c(cc3c1CCC3)CCC2)c1ccc(CNC2CCC2)cc1` [Example 705, (R)-4-((cyclobutylamino)methyl)-N′-((1,2,3,5,6,7-hexahydro-s-indacen-4-yl)carbamoyl)-benzenesulfonimidamide], with 1000 to 5000 nM. Still for that read-out and setting: the same measure for `CC(C)NCc1ccc([S@](N)(=O)=NC(=O)Nc2c3c(cc4c2CCC4)CCC3)cc1` [Example 706, (R)-N′-((1,2,3,5,6,7-hexahydro-s-indacen-4-yl)carbamoyl)-4-((isopropylamino)methyl)-benzenesulfonimidamide]: 1000 to 5000 nM. For `CN1CCN(Cc2ccc([S@](N)(=O)=NC(=O)Nc3c4c(cc5c3CCC5)CCC4)cc2)CC1` [Example 707, (R)-N′-((1,2,3,5,6,7-hexahydro-s-indacen-4-yl)carbamoyl)-4-((4-methylpiperazin-1-yl)-methyl)benzenesulfonimidamide], the IC50 lay within 1000 to 5000 nM. The same measure, in the same setting: then `N[S@@](=O)(=NC(=O)Nc1c2c(cc3c1CCC3)CCC2)c1ccc(CNCC(F)F)cc1` [Example 708, (R)-4-(((2,2-difluoroethyl)amino)methyl)-N′-((1,2,3,5,6,7-hexahydro-s-indacen-4-yl)-carbamoyl)benzenesulfonimidamide], with 1000 to 5000 nM; and `CN(Cc1ccc([S@](N)(=O)=NC(=O)Nc2c3c(cc4c2CCC4)CCC3)cc1)C1CCC1` [Example 709, (R)-4-((cyclobutyl(methyl)amino)methyl)-N′-((1,2,3,5,6,7-hexahydro-s-indacen-4-yl)-carbamoyl)benzenesulfonimidamide], with 200 to 1000 nM.

With `COc1ccc([C@@H](C)NS(=O)(=NC(=O)Nc2c3c(cc4c2CCC4)CCC3)c2cnc(C(C)(C)O)s2)cc1` (stereo partly drawn) [Example 712, N′-((1,2,3,5,6,7-hexahydro-s-indacen-4-yl)carbamoyl)-2-(2-hydroxypropan-2-yl)-N-((R)-1-(4-methoxyphenyl)ethyl)thiazole-5-sulfonimidamide], the IC50 was in the range of 5000 to 30000 nM. As for `C[C@](O)(CO)c1ncc([S@](N)(=O)=NC(=O)Nc2c3c(cc4c2CCC4)CCC3)s1` [Example 713, (R)-2-((S)-1,2-dihydroxypropan-2-yl)-N-((1,2,3,5,6,7-hexahydro-s-indacen-4-yl)carbamoyl)thiazole-5-sulfonimidamide], the IC50 was 8 to 40 nM.

As for `C[C@@](O)(CO)c1ncc([S@](N)(=O)=NC(=O)Nc2c3c(cc4c2CCC4)CCC3)s1` [Example 714, (R)-2-((R)-1,2-dihydroxypropan-2-yl)-N-((1,2,3,5,6,7-hexahydro-s-indacen-4-yl)carbamoyl)thiazole-5-sulfonimidamide], the IC50 fell in the range of 8 to 40 nM.

The same test, now with this note: hTHP-1 assay containing 2% fetal bovine serum, Table B2, class symbols; read-out: IC50.
Consider `CC(C)(O)c1cnc(S(N)(=O)=NC(=O)Nc2c3c(cc4c2CCC4=O)CCC3)s1` (stereo not drawn) [Example 680, 5-(2-Hydroxypropan-2-yl)-N′-((1-oxo-1,2,3,5,6,7-hexahydro-s-indacen-4-yl)carbamoyl)thiazole-2-sulfonimidamide], for which the IC50 was in the range of 8 to 40 nM.
